One data set deals with MMP-2 (Homo sapiens (Human), UniProt P08253). Nature of the data set: In vitro fluorescence assay of MMP-2 activity. The data set is classed as biochemical. The following applies: read-out: MMP2 IC50. An excerpt:
In Vitro Fluorescence Assay of MMP-2 Activity
(§1) A continuous assay is used in which the substrate is a synthetic peptide containing a fluorescent group (7-methoxycoumarin, Mca), which is quenched by energy transfer to a 2,4-dinitrophenyl group. The substrate is the peptide Mca-PQGL-(3-[2,4-dinitrophenyl]-L-2,3-diaminopropionyl)-AR-OH. When the peptide is cleaved by MMP a large increase in fluorescence is observed. The source of the enzyme for this assay is full-length, recombinant, human pro-MMP-2 expressed in Chinese Hamster Ovary (CHO) cells that is subsequently activated by an organomercurial compound, 4-aminophenyl mercuric acetate (APMA). APMA is removed through a desalting column (MMP-2 Calbiochem® catalog number PF023). The assay buffer consists of 100 mM Tris-HCl (pH 7.5), 100 mM NaCl, 10 mM CaCl2 and 10 μM human serum albumin Each well of the 96-well plates consists of a 100 μL reaction mixture consisting of assay buffer, MMP (final concentration of 0.2 nM, prepared by diluting in assay buffer), and varied concentrations of inhibitor (prepared by serially diluting a given inhibitor in DMSO in a 96-well polypropylene plate using a 10 point or 11 point dilution scheme). The enzymatic reactions are initiated by adding the substrate to a final concentration of 20 μM. The final DMSO concentration in the assay is 1.0%. The plate is incubated for 2-4 hours at room temperature and substrate cleavage is determined at room temperature with a fluorescence plate reader (excitation filter 320 and emission filter 436) on a LJL Analyst® or a Wallac Envision®.
(§2) The data is analyzed by using ActivityBase® software programs vs. 5.3 using a 4 parameter fit model equation 205 from which relative IC50's are generated. Maximum signal is calculated from wells untreated by inhibitor but having enzyme, substrate and 1.0% DMSO. Minimum signal is calculated from wells having buffer only (no enzyme), substrate, and 1.0% DMSO.

The next data set deals with MMP3 (Homo sapiens (Human), UniProt P08254). The data set can be described thus: In vitro fluorescence assay of MMP3 activity. Format: biochemical.
Excerpt: as §1, §2
(§3) Essentially the same procedure is used for the remaining MMP assays as the MMP-2 assay, above, or as known in the art. For example, for MMP-14, the enzyme source is MMP-14 (MT1-MMP) catalytic domain produced by activation of a recombinant soluble proform of the enzyme purified from the periplasm. It consists of amino acid residues Tyr^89 to Gly^265 of mature human MT1-MMP (Calbiochem® catalog number 475935). The final concentration of each well is 0.5 nM instead of 0.2 nM as in MMP-2 assay.

For a further data set, the target named is MMP7 (Homo sapiens (Human), UniProt P09237). The data set can be described thus: In vitro fluorescence assay of MMP7 activity. The data set is classed as biochemical.
Excerpt: as §1, §2, §3

Another data set concerns the target MMP8 (Homo sapiens (Human), UniProt P22894). The data set can be described thus: In vitro fluorescence assay of MMP8 activity. Format: biochemical.
Excerpt: as §1, §2, §3

The target of a further data set is MMP9 (Homo sapiens (Human), UniProt P14780). Nature of the data set: In vitro fluorescence assay of MMP9 activity. The data set is classed as biochemical.
Excerpt: as §1, §2, §3

The next data set has as its target MMP12 (Homo sapiens (Human), UniProt P39900). The data set can be described thus: In vitro fluorescence assay of MMP12 activity. Format: biochemical.
Excerpt: as §1, §2, §3

For the next data set, the target named is MMP13 (Homo sapiens (Human), UniProt P45452). The data set can be described thus: In vitro fluorescence assay of MMP13 activity. Format: biochemical. The method, then: A continuous assay is used in which the substrate is a synthetic peptide containing a fluorescent group (7-methoxycoumarin, Mca), which is quenched by energy transfer to a 2,4-dinitrophenyl group. The substrate is the peptide Mca-PQGL-(3-[2,4-dinitrophenyl]-L-2,3-diaminopropionyl)-AR-OH. […] APMA is removed through a desalting column (MMP-2 Calbiochem® catalog number PF023). The assay buffer consists of 100 mM Tris-HCl (pH 7.5), 100 mM NaCl, 10 mM CaCl2 and 10 μM human serum albumin Each well of the 96-well plates consists of a 100 μL reaction mixture consisting of assay buffer, MMP (final concentration of 0.2 nM, prepared by diluting in assay buffer), and varied concentrations of inhibitor (prepared by serially diluting a given inhibitor in DMSO in a 96-well polypropylene plate using a 10 point or 11 point dilution scheme). The enzymatic reactions are initiated by adding the substrate to a final concentration of 20 μM. The final DMSO concentration in the assay is 1.0%.
as §2, §3

The target of data set [1] is MMP-14 (MT1-MMP) catalytic domain (Homo sapiens (Human), UniProt P50281). The data set can be described thus: In vitro fluorescence assay of MMP-14 activity. Format: biochemical. The following applies: read-out: MMP14 IC50.
Excerpt: as §1, §2, §3

Data set [2] relates to aggrecanase-cleaved fragments of aggrecan (NITEGE) in synovial lavage. Nature of the data set: MIA injection PD model in rats. The following applies: twice a day, rat. The data set is classed as in vivo, Lewis rats. The method, then:
MIA Injection PD Model in Rats
The assay as described in Swearingen et al., Osteoarthritis and Cartilage 18 (2010) 1159-1166, may be employed. MIA (Sigma, catalog #I2512, sodium salt) is prepared fresh on the day of use at 3 mg in 50 ul sterile 0.9% saline. 7-8-week-old male Lewis rats are anesthetized and injected intra-articularly with MIA into the right knee (to induce endogenous aggrecanase activity and the release of aggrecan fragments into the synovial fluid) and saline in the left (contralateral) knee on day 0. […] The synovial lavage is assayed for aggrecanase-cleaved fragments of aggrecan using the NITEGE sandwich ELISA. The amount of aggrecan fragments present in the synovial lavage is determined based on a standard curve generated with aggrecanase-digested rat aggrecan. Statistical analysis is performed using Dunnett's test. Sandwich ELISA assay: For the NITEGE ELISA, the a-NITEGE monoclonal antibody is immobilized on white high binding ELISA plates (Nunc) overnight at 4 C. Following blocking, rat synovial fluid lavage samples are added to the plate and fragments with a C-terminal NITEGE sequence are captured. The captured fragments are detected using the HRP-conjugated a-HABR monoclonal antibody. The ELISA signal is measured using the Supersignal ELISA femto maximum sensitivity substrate (Pierce) and read on a Victor luminometer. The amount of aggrecan fragments present in the sample is determined based on a standard curve generated with aggrecanase-digested rat chondrosarcoma aggrecan (850 mg/ml stock diluted in antibody dilution buffer).

Another data set addresses ADAMTS-4 (Homo sapiens (Human), UniProt O75173). Nature of the data set: ADAMTS-4 AlphaScreen assay. The following applies: buffer. Format: biochemical. As to the method: ADAMTS-4 and ADAMTS-5 AlphaScreen Assay:
(§4) The plate is covered with aluminum foil tape and the binding is allowed to incubate overnight. The plate is then read on an AlphaScreen Fusion Alpha reader from Perkin Elmer. Data is analyzed using ActivityBase™ software (IDBS Alameda, Calif.). A similar assay is used with purified dog ADAMTS-4 enzyme.
A general note: Alpha assays give light when donor and acceptor beads are brought close together.

Data set [3] concerns the target T1, dog ADAMTS-4 (Canis lupus familiaris, UniProt A0A8I3Q3A2). The data set can be described thus: Dog ADAMTS-4 AlphaScreen assay. Format: biochemical. The following applies: purified dog ADAMTS-4 enzyme. The method, then: as §4
The target in data set [4] is T1, dog ADAMTS-4. The data set can be described thus: Dog plasma shift AlphaScreen assay. The data set is classed as biochemical. The following applies: dog ADAMTS-4 in 25% dog plasma. As to the method:
Rat and Dog Plasma Shift AlphaScreen Assay
The assay is completed in the same manner using 10 nM ADAMTS-5 instead of 2.1 nM. A similar assay is used with dog ADAMTS-4 in the presence of 25% dog plasma.

The next data set has as its target MMP1 (Homo sapiens (Human), UniProt P03956). The data set can be described thus: In vitro fluorescence assay of MMP1 activity. The data set is classed as biochemical.
Excerpt: as §1, §2, §3

The test system of a further data set is plasma ARGN. The data set can be described thus: Plasma biomarker ARGN in osteoarthritis dogs. The data set is classed as in vivo, Beagle dogs. The following applies: OA dogs. An excerpt:
Study of the Plasma Biomarker ARGN in Osteoarthritis Dogs
The objective of this study is to determine the plasma biomarker ARGN response in osteoarthritic (OA) dogs to a compound of the invention across a range of doses following daily oral administration for 21 days. Sixteen (16) adult laboratory Beagle dogs ≧8 years of age with radiographic evidence of OA in the hip joint(s) and 4 age matched control Beagle dogs without OA are enrolled in the study.
(§5) Blood samples for baseline plasma ARGN concentrations are collected from all dogs on 30, 28, and 26 days to prior to beginning dose administration. […] The 4 age matched control dogs without OA all are assigned to the placebo treatment group.

Data set [5] can be described thus: Example 2 compound plasma concentration in osteoarthritis dogs (LC-MS/MS). The data set is classed as in vivo, Beagle dogs.
Excerpt: as §5

The structures appear in SMILES notation.

MMP9, sequence (P14780 94-707, species assumed): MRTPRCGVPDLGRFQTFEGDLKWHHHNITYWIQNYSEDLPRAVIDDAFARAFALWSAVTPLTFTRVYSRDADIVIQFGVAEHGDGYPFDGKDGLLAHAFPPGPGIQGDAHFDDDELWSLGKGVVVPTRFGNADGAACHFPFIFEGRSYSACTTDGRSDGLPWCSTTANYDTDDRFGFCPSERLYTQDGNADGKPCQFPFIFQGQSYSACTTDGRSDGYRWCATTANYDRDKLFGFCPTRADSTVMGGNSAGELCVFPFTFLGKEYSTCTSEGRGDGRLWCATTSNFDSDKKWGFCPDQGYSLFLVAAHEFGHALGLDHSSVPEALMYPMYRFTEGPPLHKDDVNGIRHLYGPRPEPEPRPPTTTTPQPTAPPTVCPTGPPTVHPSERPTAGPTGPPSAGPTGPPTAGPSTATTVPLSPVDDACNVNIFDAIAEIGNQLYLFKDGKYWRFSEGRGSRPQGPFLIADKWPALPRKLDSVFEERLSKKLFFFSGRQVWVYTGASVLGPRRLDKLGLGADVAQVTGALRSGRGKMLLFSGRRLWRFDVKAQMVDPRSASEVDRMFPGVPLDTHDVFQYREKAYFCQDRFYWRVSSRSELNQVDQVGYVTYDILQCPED
ADAMTS-4, sequence (O75173 213-837, species assumed): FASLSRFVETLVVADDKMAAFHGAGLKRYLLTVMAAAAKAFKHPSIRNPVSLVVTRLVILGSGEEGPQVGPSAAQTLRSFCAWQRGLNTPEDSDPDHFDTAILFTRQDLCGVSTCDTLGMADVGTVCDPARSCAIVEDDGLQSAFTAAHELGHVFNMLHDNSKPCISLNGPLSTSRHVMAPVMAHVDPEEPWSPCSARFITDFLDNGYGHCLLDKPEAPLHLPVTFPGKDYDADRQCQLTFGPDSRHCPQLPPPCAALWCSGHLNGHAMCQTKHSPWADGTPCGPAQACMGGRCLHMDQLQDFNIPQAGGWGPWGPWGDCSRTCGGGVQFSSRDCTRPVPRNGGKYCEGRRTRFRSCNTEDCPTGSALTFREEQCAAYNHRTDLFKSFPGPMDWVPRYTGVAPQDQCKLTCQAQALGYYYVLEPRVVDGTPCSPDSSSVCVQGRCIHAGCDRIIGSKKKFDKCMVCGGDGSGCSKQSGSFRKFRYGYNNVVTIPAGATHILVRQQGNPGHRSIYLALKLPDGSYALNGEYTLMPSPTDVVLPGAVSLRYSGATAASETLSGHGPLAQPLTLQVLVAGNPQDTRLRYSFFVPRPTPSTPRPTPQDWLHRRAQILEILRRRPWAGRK
MMP-2, sequence (P08253 110-660): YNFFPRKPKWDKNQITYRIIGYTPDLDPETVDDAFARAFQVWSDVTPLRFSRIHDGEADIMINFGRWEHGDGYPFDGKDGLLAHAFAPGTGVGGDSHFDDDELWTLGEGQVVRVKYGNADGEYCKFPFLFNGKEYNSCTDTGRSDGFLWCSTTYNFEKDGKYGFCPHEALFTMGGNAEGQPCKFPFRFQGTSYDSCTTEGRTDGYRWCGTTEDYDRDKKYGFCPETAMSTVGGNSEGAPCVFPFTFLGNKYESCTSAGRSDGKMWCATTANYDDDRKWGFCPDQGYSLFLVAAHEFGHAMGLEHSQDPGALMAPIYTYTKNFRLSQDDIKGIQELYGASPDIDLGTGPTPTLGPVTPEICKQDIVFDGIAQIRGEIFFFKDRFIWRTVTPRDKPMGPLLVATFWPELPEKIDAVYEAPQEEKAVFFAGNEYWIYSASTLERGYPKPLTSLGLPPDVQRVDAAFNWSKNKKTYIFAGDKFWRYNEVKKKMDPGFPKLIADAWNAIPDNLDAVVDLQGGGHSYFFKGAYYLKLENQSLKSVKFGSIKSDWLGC
MMP7, sequence (P09237 95-267, species assumed): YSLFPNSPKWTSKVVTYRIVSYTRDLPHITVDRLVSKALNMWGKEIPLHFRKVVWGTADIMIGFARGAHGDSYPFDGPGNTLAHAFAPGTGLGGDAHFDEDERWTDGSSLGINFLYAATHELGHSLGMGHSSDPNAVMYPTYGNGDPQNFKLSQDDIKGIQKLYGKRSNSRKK
MMP3, sequence (P08254 100-477, species assumed): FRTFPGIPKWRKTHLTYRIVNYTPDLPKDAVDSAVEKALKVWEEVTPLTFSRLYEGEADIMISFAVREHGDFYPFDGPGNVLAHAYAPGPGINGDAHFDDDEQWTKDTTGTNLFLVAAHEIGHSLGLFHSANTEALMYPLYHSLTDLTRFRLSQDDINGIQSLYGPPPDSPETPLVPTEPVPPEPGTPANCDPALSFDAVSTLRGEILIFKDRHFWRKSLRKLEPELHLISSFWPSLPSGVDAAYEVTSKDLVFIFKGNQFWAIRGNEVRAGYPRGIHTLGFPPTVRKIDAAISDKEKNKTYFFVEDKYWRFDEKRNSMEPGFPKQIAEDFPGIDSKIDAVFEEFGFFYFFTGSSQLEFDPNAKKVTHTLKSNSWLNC
MMP8, sequence (P22894 101-467, species assumed): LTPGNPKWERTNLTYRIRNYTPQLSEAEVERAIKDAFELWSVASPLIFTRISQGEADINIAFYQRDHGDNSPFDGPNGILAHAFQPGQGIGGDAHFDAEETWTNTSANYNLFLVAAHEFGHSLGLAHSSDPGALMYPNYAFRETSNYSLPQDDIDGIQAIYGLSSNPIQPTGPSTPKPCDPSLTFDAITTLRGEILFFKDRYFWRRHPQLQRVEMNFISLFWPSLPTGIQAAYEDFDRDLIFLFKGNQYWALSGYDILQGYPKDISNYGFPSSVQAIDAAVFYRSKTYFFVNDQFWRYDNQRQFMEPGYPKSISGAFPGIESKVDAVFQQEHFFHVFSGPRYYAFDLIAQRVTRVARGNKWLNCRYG
MMP1, sequence (P03956 100-469, species assumed): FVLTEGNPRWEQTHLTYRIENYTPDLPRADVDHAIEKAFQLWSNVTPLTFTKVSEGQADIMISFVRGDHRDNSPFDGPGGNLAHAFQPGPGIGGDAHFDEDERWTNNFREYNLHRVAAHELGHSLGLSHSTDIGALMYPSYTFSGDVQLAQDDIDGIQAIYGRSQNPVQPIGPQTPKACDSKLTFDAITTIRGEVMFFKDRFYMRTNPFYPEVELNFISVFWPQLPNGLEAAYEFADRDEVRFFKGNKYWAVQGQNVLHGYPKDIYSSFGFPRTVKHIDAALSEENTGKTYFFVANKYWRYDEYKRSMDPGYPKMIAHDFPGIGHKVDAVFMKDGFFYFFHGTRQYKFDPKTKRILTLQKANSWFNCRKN
MMP12, sequence (P39900 106-470, species assumed): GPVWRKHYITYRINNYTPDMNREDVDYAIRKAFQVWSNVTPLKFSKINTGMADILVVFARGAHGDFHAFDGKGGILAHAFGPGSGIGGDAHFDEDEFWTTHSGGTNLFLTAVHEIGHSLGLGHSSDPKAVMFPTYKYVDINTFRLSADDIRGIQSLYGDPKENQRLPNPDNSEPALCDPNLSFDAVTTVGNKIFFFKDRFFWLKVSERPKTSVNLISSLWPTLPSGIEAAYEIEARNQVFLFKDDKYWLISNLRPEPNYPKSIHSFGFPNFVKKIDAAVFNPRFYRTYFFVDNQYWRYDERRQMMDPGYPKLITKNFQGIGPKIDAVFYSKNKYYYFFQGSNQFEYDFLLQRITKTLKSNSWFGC
T1 sequence (A0A8I3Q3A2 1-992): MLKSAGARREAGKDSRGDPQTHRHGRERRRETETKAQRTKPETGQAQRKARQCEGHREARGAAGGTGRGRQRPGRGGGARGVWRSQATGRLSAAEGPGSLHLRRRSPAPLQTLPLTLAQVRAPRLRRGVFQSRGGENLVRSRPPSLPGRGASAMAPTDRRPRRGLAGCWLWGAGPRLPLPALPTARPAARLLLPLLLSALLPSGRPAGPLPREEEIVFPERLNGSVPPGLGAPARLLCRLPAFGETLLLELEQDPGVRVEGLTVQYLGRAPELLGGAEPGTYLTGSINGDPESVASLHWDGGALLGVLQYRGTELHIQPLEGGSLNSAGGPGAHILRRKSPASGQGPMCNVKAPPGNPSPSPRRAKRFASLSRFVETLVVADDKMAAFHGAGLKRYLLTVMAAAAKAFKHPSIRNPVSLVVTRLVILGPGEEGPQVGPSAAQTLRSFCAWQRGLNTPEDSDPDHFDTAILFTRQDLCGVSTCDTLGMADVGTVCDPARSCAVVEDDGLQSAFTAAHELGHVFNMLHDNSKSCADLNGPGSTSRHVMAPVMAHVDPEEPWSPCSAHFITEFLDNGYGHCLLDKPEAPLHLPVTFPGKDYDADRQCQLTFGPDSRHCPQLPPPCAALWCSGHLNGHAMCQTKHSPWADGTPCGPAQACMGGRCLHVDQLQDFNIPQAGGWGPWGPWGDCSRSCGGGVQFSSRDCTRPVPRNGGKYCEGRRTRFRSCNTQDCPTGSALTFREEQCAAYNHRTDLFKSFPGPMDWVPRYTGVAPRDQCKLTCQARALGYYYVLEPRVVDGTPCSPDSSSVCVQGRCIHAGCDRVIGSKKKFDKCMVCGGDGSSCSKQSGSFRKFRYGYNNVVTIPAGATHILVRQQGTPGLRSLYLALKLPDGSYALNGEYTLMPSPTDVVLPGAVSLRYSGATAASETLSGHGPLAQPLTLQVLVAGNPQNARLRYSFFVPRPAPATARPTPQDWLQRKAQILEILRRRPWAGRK

Consider `C[C@H](Cc1ccc(C(F)(F)F)cc1)C(=O)NC[C@@]1(C2CC2)NC(=O)NC1=O` [Example 1, (2R)—N-[[(4R)-4-cyclopropyl-2,5-dioxo-imidazolidin-4-yl]methyl]-2-methyl-3-[4-(trifluoromethyl)phenyl]propanamide], for which the IC50 (as a rule, the point on the concentration scale where inhibition reaches its midpoint) on MMP-2 is 1.75 µM; at MMP3, 2.85 µM; on MMP7, > 100 µM; against MMP8, 0.0179 µM; at MMP9, 12 µM; against MMP12 it was 0.009 µM. Besides, the IC50 on MMP13 was 1.11 µM; in data set [1], 3.89 µM. Further, the % Inhibition (as a rule, the percentage by which the read-out fell short of the control) in data set [2] (10 MPK oral) amounted to 41.3%; in data set [2] (30 MPK oral) it was 48.2%; in data set [2] (100 MPK oral), 70.2%. The “MIA (aggrecan fragments in synovial lavage of MIA knee)” value in data set [2] (10 MPK oral) is recorded as 15.87; in data set [2] (30 MPK oral) it was 14.00; in data set [2] (100 MPK oral) it was 8.06.
For `CC[C@H](Cc1ccc(C(F)(F)F)cc1)C(=O)NC[C@@]1(C2CC2)NC(=O)NC1=O` [Example 2, (2R)—N-[[(4R)-4-cyclopropyl-2,5-dioxo-imidazolidin-4-yl]methyl]-2-[[4-(trifluoromethyl)phenyl]methyl]butanamide], the half-inhibitory concentration (IC50) at ADAMTS-4 is 0.002 µM; against dog ADAMTS-4 [3] it was 0.001 µM; on dog ADAMTS-4 [4] it was 0.326 µM; against MMP1, 0.897 µM; at MMP-2, 0.704 µM; against MMP3, 15.3 µM. Also, the half-inhibitory concentration (IC50) at MMP7 is > 100 µM; at MMP8 it was < 0.0051 µM; at MMP9 it was 0.439 µM; against MMP12 it was 0.026 µM; at MMP13 it was 4.19 µM; in data set [1], 7.99 µM. Further, the “mean Day 21 inhibition of plasma ARGN concentrations” value in the data set on plasma ARGN (0.1 mg/kg daily oral) stood at 33.8%; with plasma ARGN (1 mg/kg daily oral), 70.7%; in the data set on plasma ARGN (10 mg/kg daily oral), 80.3%. Besides, the “plasma concentrations versus dosage” value in data set [5] (0.1, 1, 10 mg/kg daily oral) is “increase with dosage in a sub-proportional manner”. In [5] (daily oral dosing), the steady-state trough concentrations result is “rapidly achieved”.
Consider `O=C1NC(=O)[C@](CNC(=O)[C@@H](Cc2ccc(C(F)(F)F)cc2)C2CC2)(C2CC2)N1` [Example 3, (2S)-2-cyclopropyl-N-[[(4R)-4-cyclopropyl-2,5-dioxo-imidazolidin-4-yl]methyl]-3-[4-(trifluoromethyl)phenyl]propanamide], for which the IC50 was 39.2 µM against MMP1; 35 µM at MMP-2; 99.7 µM against MMP3; > 100 µM against MMP7; 0.804 µM at MMP8; > 100 µM against MMP9. For the same compound, the values for the IC50 (against MMP12; against MMP13; in data set [1]) were 0.268 µM, 47 µM and 50.2 µM, respectively.
As for `CC(C)[C@H](Cc1ccc(C(F)(F)F)cc1)C(=O)NC[C@@]1(C2CC2)NC(=O)NC1=O` [Example 4, (2S)—N-[[(4R)-4-cyclopropyl-2,5-dioxo-imidazolidin-4-yl]methyl]-3-methyl-2-[[4-(trifluoromethyl)phenyl]methyl]butanamide], the IC50 was 0.014 µM against ADAMTS-4; 56.8 µM against MMP1; > 100 µM at MMP-2; > 100 µM against MMP3; > 100 µM against MMP7; 5.22 µM at MMP8. The IC50 at MMP9 was > 100 µM; against MMP12 it was 3.37 µM; against MMP13 it was > 100 µM; in data set [1] it was > 100 µM.
For the compound `CC(C)(Cc1ccc(C(F)(F)F)cc1)C(=O)NC[C@@]1(C2CC2)NC(=O)NC1=O` [Example 5, N-[[(4R)-4-cyclopropyl-2,5-dioxoimidazolidin-4-yl]methyl]-2,2-dimethyl-3-[4-(trifluoromethyl)phenyl]propanamide], the IC50 is 0.007 µM against ADAMTS-4; 4.55 µM at MMP1; 4.65 µM on MMP-2; 13.2 µM at MMP3; > 100 µM on MMP7; 0.054 µM at MMP8. Further, the IC50 on MMP9 was determined as 7.59 µM; at MMP12 it was 0.071 µM; against MMP13, 4.81 µM; in data set [1] it was 14.9 µM.

For the origin of these results see patent US9206139B2, “Aggrecanase inhibitors” (Eli Lilly and Company, priority 2012, dated 2015).
